Results published in US20230093099A1, “COMPOUNDS AND METHODS OF TREATING CANCERS” (CULLGEN (SHANGHAI), INC., priority 2019, published 2023).

What follows are compounds tested on RS4;11 cells (assay: Cell viability assay (CellTiter-Glo) in RS4;11 cells). Settings: Homo sapiens, 72 h; RS4;11 cells; cell viability, 3 days, CellTiter-Glo; read-out: IC50.
Format: cell-based
Experimental: Specific exemplary heterobifunctional compounds were first characterized using cell viability assays. RS4;11 ALL cells were treated with bifunctional degraders for three days. The IC50 values ranged from 2 nM to over 10 uM.
MV4;11, RS4;11, Kasumi-1, HEL and other cells were treated with NVP-BSK805, TG101209 or selected degraders for 3 days at indicated concentrations following a 3-fold serial dilution.
HEL, RS4;11, MV4;11, Kasumi-1 and other cells were cultured at 37° C. with 5% CO2 in RPMI 1640 or DMEM Medium supplemented with 10% fetal bovine serum. Cells were authenticated using the short tandem repeat (STR) assays. Mycoplasma test results were negative.
Cells were seeded at a density of 5000 cells per well in 96-well assay plates and treated with test compounds following a 8-point or 12-point 3-fold serial dilution. Three days later, cell viability was determined using the CellTiter-Glo assay kit according to the manufacturer's instructions. The dose-response curves were determined and IC50 values were calculated using the GraphPad Prism software following a nonlinear regression (least squares fit) method.

Row | IC50 [µM] | SMILES
1 | > 0.5 | O=C1CCC(n2c(=O)n(CCCCCCC(=O)N3CCC(n4cc(-c5cnc6cccc(-c7cc(F)c(CN8CCOCC8)c(F)c7)c6n5)cn4)CC3)c3ccccc32)C(=O)N1 (stereo not shown) [JA-279, 3-(3-(7-(4-(4-(8-(3,5-Difluoro-4-(morpholinomethyl)phenyl)quinoxalin-2-yl)-1H-pyrazol-1-yl)piperidin-1-yl)-7-oxoheptyl)-2-oxo-2,3-dihydro-1H-benzo[d]imidazol-1-yl)piperidine-2,6-dione]
2 | > 10 | O=C(CN1CCC(n2cc(-c3cnc4cccc(-c5cc(F)c(CN6CCOCC6)c(F)c5)c4n3)cn2)CC1)NCCOCCOCCOCCOCCNc1cccc2c1C(=O)N(C1CCC(=O)NC1=O)C2=O (stereo not shown) [JA-142, 2-[4-[4-[8-[3,5-Difluoro-4-(morpholinomethyl)phenyl]quinoxalin-2-yl]pyrazol-1-yl]-1-piperidyl]-N-[2-[2-[2-[2-[2-[[2-(2,6-dioxo-3-piperidyl)-1,3-dioxo-isoindolin-4-yl]amino]ethoxy]ethoxy]ethoxy]ethoxy]ethyl]acetamide]
3 | 0.121 | Cc1cnc(Nc2ccc(N3CCN(CC(=O)NCCCCCCCNc4cccc5c4C(=O)N(C4CCC(=O)NC4=O)C5=O)CC3)cc2)nc1Nc1cccc(S(=O)(=O)NC(C)(C)C)c1 (stereo not shown) [JA-095, 2-(4-(4-((4-((3-(N-(tert-Butyl)sulfamoyl)phenyl)amino)-5-methylpyrimidin-2-yl)amino)phenyl)piperazin-1-yl)-N-(7-((2-(2,6-dioxopiperidin-3-yl)-1,3-dioxoisoindolin-4-yl)amino)heptyl)acetamide]
4 | > 10 | Cc1ncsc1-c1ccc(CNC(=O)[C@@H]2C[C@@H](O)CN2C(=O)[C@@H](NC(=O)CCCCCCCNC(=O)CN2CCN(c3ccc(Nc4nc5cccc(-c6ccc(S(C)(=O)=O)cc6)n5n4)cc3)CC2)C(C)(C)C)cc1 [JA-124, (2S,4R)-1-((S)-3,3-Dimethyl-2-(8-(2-(4-(4-((5-(4-(methylsulfonyl)phenyl)-[1,2,4]triazolo[1,5-a]pyridin-2-yl)amino)phenyl)piperazin-1-yl)acetamido)octanamido)butanoyl)-4-hydroxy-N-(4-(4-methylthiazol-5-yl)benzyl)pyrrolidine-2-carboxamide]
5 | > 10 | O=C(CN1CCC(n2cc(-c3cnc4cccc(-c5cc(F)c(CN6CCOCC6)c(F)c5)c4n3)cn2)CC1)NCCOCCOCCNc1cccc2c1C(=O)N(C1CCC(=O)NC1=O)C2=O (stereo not shown) [JA-140, 2-[4-[4-[8-[3,5-Difluoro-4-(morpholinomethyl)phenyl]quinoxalin-2-yl]pyrazol-1-yl]-1-piperidyl]-N-[2-[2-[2-[[2-(2,6-dioxo-3-piperidyl)-1,3-dioxo-isoindolin-4-yl]amino]ethoxy]ethoxy]ethyl]acetamide]

Continued, compound first:

Row | SMILES | IC50 [µM]
6 | Cc1ncsc1-c1ccc(CNC(=O)[C@@H]2C[C@@H](O)CN2C(=O)[C@@H](NC(=O)CCCCCCNC(=O)CN2CCC(n3cc(-c4cnc5cccc(-c6cc(F)c(CN7CCOCC7)c(F)c6)c5n4)cn3)CC2)C(C)(C)C)cc1 [JA-165, (2S,4R)-1-((S)-2-(7-(2-(4-(4-(8-(3,5-Difluoro-4-(morpholinomethyl)phenyl)quinoxalin-2-yl)-1H-pyrazol-1-yl)piperidin-1-yl)acetamido)heptanamido)-3,3-dimethylbutanoyl)-4-hydroxy-N-(4-(4-methylthiazol-5-yl)benzyl)pyrrolidine-2-carboxamide] | > 10
7 | Cc1cnc(Nc2ccc(N3CCN(CC(=O)NCCC(=O)N[C@H](C(=O)N4C[C@H](O)C[C@H]4C(=O)NCc4ccc(-c5scnc5C)cc4)C(C)(C)C)CC3)cc2)nc1Nc1cccc(S(=O)(=O)NC(C)(C)C)c1 [JA-098, (2S,4R)-1-((S)-2-(3-(2-(4-(4-((4-((3-(N-(tert-Butyl)sulfamoyl)phenyl)amino)-5-methylpyrimidin-2-yl)amino)phenyl)piperazin-1-yl)acetamido)propanamido)-3,3-dimethylbutanoyl)-4-hydroxy-N-(4-(4-methylthiazol-5-yl)benzyl)pyrrolidine-2-carboxamide] | > 10
8 | O=C(CN1CCC(n2cc(-c3cnc4cccc(-c5cc(F)c(CN6CCOCC6)c(F)c5)c4n3)cn2)CC1)NCCNc1ccc2c(c1)C(=O)N(C1CCC(=O)NC1=O)C2=O (stereo not shown) [JA-174, 2-(4-(4-(8-(3,5-Difluoro-4-(morpholinomethyl)phenyl)quinoxalin-2-yl)-1H-pyrazol-1-yl)piperidin-1-yl)-N-(2-((2-(2,6-dioxopiperidin-3-yl)-1,3-dioxoisoindolin-5-yl)amino)ethyl)acetamide] | 2.45
9 | O=C1CCC(N2C(=O)c3cccc(NCCOCCC(=O)N4CCC(n5cc(-c6cnc7cccc(-c8cc(F)c(CN9CCOCC9)c(F)c8)c7n6)cn5)CC4)c3C2=O)C(=O)N1 (stereo not shown) [JA-045, 4-[2-[3-[4-[4-[8-[3,5-Difluoro-4-(morpholinomethyl)phenyl]quinoxalin-2-yl]pyrazol-1-yl]-1-piperidyl]-3-oxo-propoxy]ethylamino]-2-(2,6-dioxo-3-piperidyl)isoindoline-1,3-dione] | 1.26
10 | O=C1CCC(N2C(=O)c3cccc(NCCOCCOCCOCCOCCOCCC(=O)N4CCC(n5cc(-c6cnc7cccc(-c8cc(F)c(CN9CCOCC9)c(F)c8)c7n6)cn5)CC4)c3C2=O)C(=O)N1 (stereo not shown) [JA-043, 4-[2-[2-[2-[2-[2-[3-[4-[4-[8-[3,5-Difluoro-4-(morpholinomethyl)phenyl]quinoxalin-2-yl]pyrazol-1-yl]-1-piperidyl]-3-oxo-propoxy]ethoxy]ethoxy]ethoxy]ethoxy]ethylamino]-2-(2,6-dioxo-3-piperidyl)isoindoline-1,3-dione] | 7.54
11 | O=C1CCC(N2C(=O)c3ccc(NCCOCCOCCOCCOCCC(=O)N4CCC(n5cc(-c6cnc7cccc(-c8cc(F)c(CN9CCOCC9)c(F)c8)c7n6)cn5)CC4)cc3C2=O)C(=O)N1 (stereo not shown) [JA-185, 5-((15-(4-(4-(8-(3,5-Difluoro-4-(morpholinomethyl)phenyl)quinoxalin-2-yl)-1H-pyrazol-1-yl)piperidin-1-yl)-15-oxo-3,6,9,12-tetraoxapentadecyl)amino)-2-(2,6-dioxopiperidin-3-yl)isoindoline-1,3-dione] | > 10
12 | Cn1c(=O)n(C2CCC(=O)NC2=O)c2cccc(NCCCCC(=O)N3CCC(n4cc(-c5cnc6cccc(-c7cc(F)c(CN8CCOCC8)c(F)c7)c6n5)cn4)CC3)c21 (stereo not shown) [JA-286, 3-(4-((5-(4-(4-(8-(3,5-Difluoro-4-(morpholinomethyl)phenyl)quinoxalin-2-yl)-1H-pyrazol-1-yl)piperidin-1-yl)-5-oxopentyl)amino)-3-methyl-2-oxo-2,3-dihydro-1H-benzo[d]imidazol-1-yl)piperidine-2,6-dione] | > 0.5
13 | Cc1ncsc1-c1ccc(CNC(=O)[C@@H]2C[C@@H](O)CN2C(=O)[C@@H](NC(=O)CCCNC(=O)CN2CCC(n3cc(-c4cnc5cccc(-c6cc(F)c(CN7CCOCC7)c(F)c6)c5n4)cn3)CC2)C(C)(C)C)cc1 [JA-152, (2S,4R)-1-((S)-2-(4-(2-(4-(4-(8-(3,5-Difluoro-4-(morpholinomethyl)phenyl)quinoxalin-2-yl)-1H-pyrazol-1-yl)piperidin-1-yl)acetamido)butanamido)-3,3-dimethylbutanoyl)-4-hydroxy-N-(4-(4-methylthiazol-5-yl)benzyl)pyrrolidine-2-carboxamide] | > 10
